In general, Km refers to the concentration of substrate that gives half-maximal velocity.

The source made the active and inactive calls. The rule behind the calls is not given here.

Series [1] deals with COC(=O)[C@@H](N)CNC(=O)Nc1ccc([N+](=O)[O-])cc1. The series is described as follows: (§1) Kinetic constant acting as acceptor substrate for gamma-GGT (Glutamyltranspeptidase)-mediated transpeptidation was determined in rat kidney.
Series [2] concerns COC(=O)[C@@H](N)CCC(=O)Nc1ccc([N+](=O)[O-])cc1. The description is as §1.
The test system of series [3] is COC(=O)[C@@H](N)CO. Described as §1.
The test system of series [4] is COC(=O)[C@@H](N)COC(=O)Nc1ccc([N+](=O)[O-])cc1. The description is as §1.
For series [5], the system named is N[C@@H](CCC(=O)Nc1ccc([N+](=O)[O-])cc1)C(=O)O. Described as §1.
The subject of series [6] is N[C@@H](CNC(=O)Nc1ccc([N+](=O)[O-])cc1)C(=O)O. The series is described as follows: (§2) Kinetic constant acting as donor substrate for gamma-GGT (Glutamyltranspeptidase)-mediated transpeptidation was determined; in rat kidney; Inactive at 2 mM with 33.8 mU of GGT.
Series [7] deals with COC(=O)[C@@H](N)COC(=O)Nc1ccc([N+](=O)[O-])cc1. The series is described as §2.
Series [8] deals with COC(=O)[C@@H](N)CO. Briefly: Kinetic constant acting as donor substrate for gamma-GGT (Glutamyltranspeptidase)-mediated transpeptidation was determined in rat kidney; Not applicable.
Series [9] concerns COC(=O)[C@@H](N)CNC(=O)Nc1ccc([N+](=O)[O-])cc1. The series is described as follows: Kinetic constant acting as donor substrate for gamma-GGT (Glutamyltranspeptidase)-mediated transpeptidation was determined; Inactive at 2 mM with 33.8 mU of GGT in rat kidney. Type of series: tissue-based.
Series [10] has as its system COC(=O)[C@@H](N)CCC(=O)Nc1ccc([N+](=O)[O-])cc1. Briefly: (§3) Kinetic constant acting as donor substrate for GGT (gamma-Glutamyltranspeptidase)-mediated transpeptidation was determined in rat kidney. It is filed as tissue-based.
In series [11] the test system is N[C@@H](CCC(=O)Nc1ccc([N+](=O)[O-])cc1)C(=O)O. Described as §3. Type of series: tissue-based.
Series [12] has as its system N[C@@H](CNC(=O)Nc1ccc([N+](=O)[O-])cc1)C(=O)O. Briefly: Kinetic constant acting as acceptor substrate for gamma-GGT (Glutamyltranspeptidase)-mediated transpeptidation was determined in rat kidney; Solubility- Insoluble for concentration greater than 15 mM.
The target in series [13] is Glutathione hydrolase 1 proenzyme (Rattus norvegicus) (UniProt P07314). The series is described as follows: Kinetic constant acting as donor substrate for gamma-GGT (Glutamyltranspeptidase)-mediated transpeptidation was determined in rat kidney (units are 10e3/min); Inactive at 2 mM with 33.8 mU of GGT. Type of series: tissue-based.
Series [14] has the same target. Briefly: Kinetic constant acting as acceptor substrate for gamma-GGT (Glutamyltranspeptidase)-mediated transpeptidation was determined in rat kidney (units are 10e3/min). Type of series: tissue-based.
The nature of series [15]: Ratio of kinetic constant (Kcat/KM) acting as acceptor substrate for gamma-GGT (Glutamyltranspeptidase)-mediated transpeptidation was determined in rat kidney. The arrangement: unit not given here.
A short description of series [16]: Ratio of kinetic constant (Kcat/KM) acting as donor substrate for gamma-GGT (Glutamyltranspeptidase)-mediated transpeptidation was determined in rat kidney; Inactive at 2 mM with 33.8 mU of GGT.
Series [17] in a line: Ratio of kinetic constant (Kcat/KM) acting as donor substrate for gamma-GGT (Glutamyltranspeptidase)-mediated transpeptidation was determined in rat kidney.
The target in series [18] is Glutathione hydrolase 1 proenzyme (Rattus norvegicus) (UniProt P07314). The series is described as follows: Kinetic constant acting as donor substrate for gamma-GGT (Glutamyltranspeptidase)-mediated transpeptidation was determined in rat kidney (units are 10e3/min). It is filed as tissue-based.
Series [19] has the same target. Briefly: Kinetic constant acting as donor substrate for gamma-GGT (Glutamyltranspeptidase)-mediated transpeptidation was determined in rat kidney (units are 10e3/min); Not applicable. It is filed as tissue-based.
Series [20] is described as follows: Ratio of kinetic constant (Kcat/KM) acting as donor substrate for gamma-GGT (Glutamyltranspeptidase)-mediated transpeptidation was determined in rat kidney; Not applicable.
Series [21] can be described thus: Ratio of kinetic constant (Kcat/KM) acting as acceptor substrate for gamma-GGT (Glutamyltranspeptidase)-mediated transpeptidation was determined in rat kidney; Solubility- Insoluble for concentration greater than 15 mM.
For series [22], the target named is Glutathione hydrolase 1 proenzyme (Rattus norvegicus) (UniProt P07314). The series is described as follows: Kinetic constant acting as acceptor substrate for gamma-GGT (Glutamyltranspeptidase)-mediated transpeptidation was determined in rat kidney (units are 10e3/min); Solubility- Insoluble for concentration greater than 15 mM. It is filed as tissue-based.
Series [23] has the same target. Briefly: Compound was tested for the mixed non-competitive inhibition of rat kidney gamma-glutamyltranspeptidase (gamma-GGT).
The target is the same in series [24]. Briefly: Kinetic constant acting as donor substrate for gamma-GGT (Glutamyltranspeptidase)-mediated transpeptidation was determined (units are 10e3/min); Inactive at 2 mM with 33.8 mU of GGT in rat kidney. It is filed as tissue-based.
The nature of series [25]: Ratio of kinetic constant (Kcat/KM) acting as donor substrate for gamma-GGT (Glutamyltranspeptidase)-mediated transpeptidation was determined in rat kidney; Inactive at 2 mM with 33.8 mU of GGT in rat kidney.

Glutathione hydrolase 1 proenzyme (Rattus norvegicus), sequence (P07314 1-379 limits assumed): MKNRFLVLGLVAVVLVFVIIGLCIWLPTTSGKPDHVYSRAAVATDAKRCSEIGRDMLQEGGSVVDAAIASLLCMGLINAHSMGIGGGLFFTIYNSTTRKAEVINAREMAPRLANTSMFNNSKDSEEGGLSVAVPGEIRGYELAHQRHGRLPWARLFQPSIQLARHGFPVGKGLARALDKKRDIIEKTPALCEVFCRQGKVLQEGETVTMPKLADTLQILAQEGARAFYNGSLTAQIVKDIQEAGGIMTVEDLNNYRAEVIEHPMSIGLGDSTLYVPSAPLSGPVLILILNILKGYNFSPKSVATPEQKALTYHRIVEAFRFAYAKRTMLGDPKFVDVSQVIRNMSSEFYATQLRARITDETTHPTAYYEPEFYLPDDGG
Glutathione hydrolase 1 proenzyme (Rattus norvegicus), sequence (P07314 380-568 limits assumed): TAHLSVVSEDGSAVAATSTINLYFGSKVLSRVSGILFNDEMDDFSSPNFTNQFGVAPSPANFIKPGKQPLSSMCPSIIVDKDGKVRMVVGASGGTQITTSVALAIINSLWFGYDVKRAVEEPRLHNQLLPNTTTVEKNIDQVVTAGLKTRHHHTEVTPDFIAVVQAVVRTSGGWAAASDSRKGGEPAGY
Glutathione hydrolase 1 proenzyme (Rattus norvegicus), P07314, sequence (P07314 whole entry): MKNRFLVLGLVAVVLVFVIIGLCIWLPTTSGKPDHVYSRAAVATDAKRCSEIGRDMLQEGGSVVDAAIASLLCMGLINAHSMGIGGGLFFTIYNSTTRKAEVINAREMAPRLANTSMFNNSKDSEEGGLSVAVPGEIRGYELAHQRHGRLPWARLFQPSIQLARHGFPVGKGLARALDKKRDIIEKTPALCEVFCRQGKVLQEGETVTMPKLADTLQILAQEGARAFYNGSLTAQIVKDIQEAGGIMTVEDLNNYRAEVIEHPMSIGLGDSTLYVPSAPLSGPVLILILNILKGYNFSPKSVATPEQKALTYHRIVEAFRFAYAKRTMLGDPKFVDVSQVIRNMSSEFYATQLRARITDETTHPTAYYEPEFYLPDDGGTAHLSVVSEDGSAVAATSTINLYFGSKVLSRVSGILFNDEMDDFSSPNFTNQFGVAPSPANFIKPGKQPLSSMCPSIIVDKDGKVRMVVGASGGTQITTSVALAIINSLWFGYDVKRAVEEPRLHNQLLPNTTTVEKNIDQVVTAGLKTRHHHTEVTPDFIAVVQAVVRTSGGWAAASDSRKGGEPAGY

Regarding “Glutathione hydrolase 1 proenzyme (Rattus norvegicus), P07314”, the Km was 4 mM in series [1]; 6 mM in [2]; 34 mM in series [3]; 1.5 mM in [4]; 6.3 mM in [5]; “Not Active” in series [6]. The Km result in series [7] was “Not Active”; in series [8] it was “Not Active”; in series [9] it was “Not Active”; in [10] it was 5.7 mM; in [11], 0.47 mM; in series [12], “Insoluble”.

Turning to `COC(=O)[C@@H](N)COC(=O)Nc1ccc([N+](=O)[O-])cc1`, in series [13], the k cat entry is “inactive”. Besides, the k cat in series [14] was 80 s⁻¹. Moreover, in series [15], the Ratio came out at 3e+06. In series [16], the Ratio result was “inactive”.

Turning to `N[C@@H](CCC(=O)Nc1ccc([N+](=O)[O-])cc1)C(=O)O`, the Ratio in series [17] came to 1.5e+08; in [15], 2.5e+06. The k cat in series [14] worked out at 267 s⁻¹; in series [18] it was 1.15 s⁻¹.

The molecule `COC(=O)[C@@H](N)CO` yielded a k cat in series [14] of 21.7 s⁻¹. Moreover, the Ratio in series [15] was determined as 38000. Besides, in series [19], the k cat entry was “inactive”. In series [20], the Ratio result is “inactive”.

`COC(=O)[C@@H](N)CCC(=O)Nc1ccc([N+](=O)[O-])cc1`: the Ratio turned out to be 270000 in [17] and 580000 in series [15]. Also, the k cat in series [14] came out at 53.3 s⁻¹; in [18], 25 s⁻¹.

Consider `N[C@@H](CNC(=O)Nc1ccc([N+](=O)[O-])cc1)C(=O)O`, for which, in series [21], the Ratio entry is listed as “Insoluble”. For the same molecule, the k cat entry in series [13] was “inactive”. The Ratio result in series [16] was “inactive”. Further, in series [22], the k cat entry is recorded as “Insoluble”. Besides, the Ki' uncomp in series [23] stood at 1700 µM.

As to `COC(=O)[C@@H](N)CNC(=O)Nc1ccc([N+](=O)[O-])cc1`, in [14], the k cat worked out at 102 s⁻¹. Further, the Ratio in [15] is 1.4e+06. In series [24], the k cat result was “inactive”. Further, the Ratio result in series [25] was “inactive”.

Source of the values: ChEMBL document CHEMBL1136669, “Synthesis of aza and oxaglutamyl-p-nitroanilide derivatives and their kinetic studies with gamma-glutamyltranspeptidase” (Bioorg Med Chem Lett, 2003).
